Literature values in US12274713B2, “Nutraceutical composition comprising a water-soluble fullerene and a ketone” (priority 2021, dated 2025).

System: tumor growth and metastasis
Conditions: Prylutska et al.

c12c3c4c5c1c1c6c7c2c2c8c3c3c9c4c4c%10c5c5c1c1c6c6c%11c7c2c2c7c8c3c3c8c9c4c4c9c%10c5c5c1c1c6c6c%11c2c2c7c3c3c8c4c4c9c5c1c1c6c2c3c41 [60-carbon fullerene, Buckminsterfullerene]
tumor growth and metastasis: inhibit tumor growth and metastasis
